# Assay results published in patent US20240360178A1, “MACROCYCLIC IMMUNOMODULATORS” (Bristol-Myers Squibb Company, priority 2021, published 2024).
# Positions of bridges follow the written chain, without caps; N, C: chain ends. Non-standard residues stand in square brackets, D forms with d. Residues, ends and D or L forms follow the SMILES beside them. ξ: configuration not given here. Bip = N[C@@H](Cc1ccc(-c2ccccc2)cc1)C(=O)O; d(cisHyp) = O=C(O)[C@H]1C[C@@H](O)CN1; Ala(cPent) = N[C@@H](CC1CCCC1)C(=O)O; NMeF = CN[C@@H](Cc1ccccc1)C(=O)O; 4Pal = N[C@@H](Cc1ccncc1)C(=O)O; Cit = NC(=O)NCCC[C@H](N)C(=O)O; ξR = N=C(N)NCCCC(N)C(=O)O; NMeA = CN[C@@H](C)C(=O)O; Orn = NCCC[C@H](N)C(=O)O; ξF = NC(Cc1ccccc1)C(=O)O; Dab = NCC[C@H](N)C(=O)O; Sar = CNCC(=O)O
# Biological target: T1, human PD-1 (Jurkat-PD-1 cells) / PE-labeled human PD-L1-Ig (Homo sapiens, UniProt Q15116)
# T1 construct: expressed in transfected cells; host or cells: Jurkat cell line over-expressing human PD-1
# Test: Jurkat-PD-1 Cell Binding High-Content Screening Assay (CBA); Jurkat hPD1-PDL1 assay
# Conditions: Jurkat cell line over-expressing human PD-1; PE-labeled PD-L1-Ig 20 nM final; compound incubated 2 hours at 37° C.; read-out: Jurkat HPD1-PDL1 IC50
# In short: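 Jurkat-hPD-1 cells; cpd 2 h, 37° C; then PE-PD-L1-Ig 20 nM final in DMEM/10% FCS; high-content imaging read-out.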
# T1 sequence (Q15116 25-288): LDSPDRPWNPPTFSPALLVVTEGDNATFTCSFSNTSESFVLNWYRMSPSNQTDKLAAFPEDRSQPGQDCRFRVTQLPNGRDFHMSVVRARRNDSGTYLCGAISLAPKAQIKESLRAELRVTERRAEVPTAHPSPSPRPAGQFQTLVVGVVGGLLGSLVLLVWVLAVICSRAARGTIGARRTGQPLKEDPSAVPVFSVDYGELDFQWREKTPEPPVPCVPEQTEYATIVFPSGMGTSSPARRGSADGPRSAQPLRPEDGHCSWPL
row,IC50 [µM],SMILES
1,0.11,CC(C)C[C@@H]1NC(=O)[C@H](CCCNC(=N)N)NC(=O)[C@H](Cc2ccccc2)N(C)C(=O)[C@H](C)N(C)C(=O)[C@H](CCCNC(N)=O)NC(=O)[C@H](Cc2ccc(-c3ccccc3)cc2)NC(=O)[C@H](C(C)C)NC(=O)[C@H](Cc2c[nH]c3ccccc23)NC(=O)[C@H](CC(=O)O)NC(=O)[C@H](Cc2ccc(O)cc2)NC(=O)[C@H](Cc2ccccc2)NC(=O)CSC[C@@H](C(=O)NCC(N)=O)NC(=O)[C@H](CO)NC(=O)[C@H](C(C)C)NC1=O [Example 1245] ({CH2CO}-FYDWV[Bip][Cit][NMeA][NMeF]RLVSCG-NH2; thioether N-14)
2,0.12,CC(C)C[C@@H]1NC(=O)[C@H](CCCN)NC(=O)[C@H](Cc2ccccc2)N(C)C(=O)[C@H](C)N(C)C(=O)[C@H](CCCNC(=N)N)NC(=O)[C@H](Cc2ccc(-c3ccccc3)cc2)NC(=O)[C@H](C(C)C)NC(=O)[C@H](Cc2c[nH]c3ccccc23)NC(=O)[C@H](CC(=O)O)NC(=O)[C@H](Cc2ccc(O)cc2)NC(=O)[C@H](Cc2ccccc2)NC(=O)CSC[C@@H](C(=O)N[C@@H](C)C(N)=O)NC(=O)[C@H]([C@@H](C)O)NC(=O)[C@H](C(C)C)NC1=O [Example 1345] ({CH2CO}-FYDWV[Bip]R[NMeA][NMeF][Orn]LVTCA-NH2; thioether N-14)
3,0.38,CC(C)C[C@@H]1NC(=O)[C@H](CCCN)NC(=O)[C@H](Cc2ccccc2)N(C)C(=O)[C@H](C)N(C)C(=O)[C@H](CCCNC(=N)N)NC(=O)[C@H](Cc2ccc(-c3ccccc3)cc2)NC(=O)[C@H](C(C)C)NC(=O)[C@H](Cc2c[nH]c3ccccc23)NC(=O)[C@H](CC(=O)O)NC(=O)[C@H](Cc2ccc(O)cc2)NC(=O)[C@H](Cc2ccccc2)NC(=O)CSC[C@@H](C(=O)N[C@@H](CCC(=O)O)C(N)=O)NC(=O)[C@H]([C@@H](C)O)NC(=O)[C@H](C(C)C)NC1=O [Example 1361] ({CH2CO}-FYDWV[Bip]R[NMeA][NMeF][Orn]LVTCE-NH2; thioether N-14)
4,0.17,CC(C)C[C@@H]1NC(=O)[C@H](Cc2c[nH]c3ccccc23)NC(=O)[C@H](CC(=O)O)NC(=O)[C@H](Cc2ccc(O)cc2)NC(=O)[C@H](CC(N)=O)NC(=O)CSC[C@@H](C(=O)N[C@@H](C)C(N)=O)NC(=O)[C@H](CO)NC(=O)[C@H](C(C)C)NC(=O)[C@H](CC(C)C)NC(=O)[C@H](CCN)NC(=O)[C@H]2CCCN2C(=O)[C@H](CCCN)NC(=O)[C@H](C(C)C)NC(=O)[C@H](Cc2ccc(-c3ccccc3)cc2)NC1=O [Example 1401] ({CH2CO}-NYDWL[Bip]V[Orn][dP][Dab]LVSCA-NH2; thioether N-14)
5,0.42,CC(C)C[C@@H]1NC(=O)[C@H](Cc2c[nH]c3ccccc23)NC(=O)[C@H](CC(=O)O)NC(=O)[C@H](Cc2ccc(O)cc2)NC(=O)[C@H](Cc2ccccc2)NC(=O)CSC[C@@H](C(=O)N[C@@H](C)C(N)=O)NC(=O)[C@H](CO)NC(=O)[C@H](C(C)C)NC(=O)[C@H](CC(C)C)NC(=O)[C@H](CC(N)=O)NC(=O)CN(C)C(=O)[C@H](C)N(C)C(=O)[C@H](CCC(=O)O)NC(=O)[C@H](Cc2ccc(-c3ccccc3)cc2)NC1=O [Example 1119] ({CH2CO}-FYDWL[Bip]E[NMeA][Sar]NLVSCA-NH2; thioether N-14)
6,0.31,CC(C)C[C@@H]1NC(=O)[C@H](Cc2c[nH]c3ccccc23)NC(=O)[C@H](CC(=O)O)NC(=O)[C@H](Cc2ccc(O)cc2)NC(=O)[C@H](Cc2ccccc2)NC(=O)CSC[C@@H](C(=O)N[C@@H](C)C(N)=O)NC(=O)[C@H](CO)NC(=O)[C@H](C(C)C)NC(=O)[C@H](CC2CCCC2)NC(=O)[C@H](CC(N)=O)NC(=O)CN(C)C(=O)[C@H](C)N(C)C(=O)[C@H](C(C)C)NC(=O)[C@H](Cc2ccc(-c3ccccc3)cc2)NC1=O [Example 1102] ({CH2CO}-FYDWL[Bip]V[NMeA][Sar]N[Ala(cPent)]VSCA-NH2; thioether N-14)
7,0.48,CC(C)C[C@@H]1NC(=O)[C@H](Cc2c[nH]c3ccccc23)NC(=O)[C@H](CC(=O)O)NC(=O)[C@H](Cc2ccc(O)cc2)NC(=O)[C@H](Cc2ccccc2)NC(=O)CSC[C@@H](C(=O)N[C@@H](C)C(N)=O)NC(=O)[C@H](CO)NC(=O)[C@H](C(C)C)NC(=O)[C@H](CC(C)C)NC(=O)[C@H](CC(N)=O)NC(=O)[C@H]2C[C@@H](O)CN2C(=O)[C@H](C)N(C)C(=O)[C@H](C(C)C)NC(=O)[C@H](Cc2ccc(-c3ccccc3)cc2)NC1=O [Example 1126] ({CH2CO}-FYDWL[Bip]V[NMeA][d(cisHyp)]NLVSCA-NH2; thioether N-14)
8,0.09,CC(C)C[C@@H]1NC(=O)C(CCCNC(=N)N)NC(=O)[C@H](Cc2ccccc2)N(C)C(=O)[C@H](CCCCN)NC(=O)[C@H](CCCNC(=N)N)NC(=O)[C@H](Cc2ccc(-c3ccccc3)cc2)NC(=O)[C@H](C(C)C)NC(=O)[C@H](Cc2c[nH]c3ccccc23)NC(=O)[C@H](CC(=O)O)NC(=O)[C@H](Cc2ccc(O)cc2)NC(=O)[C@H](Cc2ccccc2)NC(=O)CSC[C@@H](C(=O)NCC(N)=O)NC(=O)[C@H](CO)NC(=O)[C@H](C(C)C)NC1=O (stereo partly shown) [Example 1216] ({CH2CO}-FYDWV[Bip]RK[NMeF][ξR]LVSCG-NH2; thioether N-14)
9,0.24,CC(C)C[C@@H]1NC(=O)[C@H](Cc2c[nH]c3ccccc23)NC(=O)[C@H](CC(=O)O)NC(=O)[C@H](Cc2ccc(O)cc2)NC(=O)[C@H](Cc2ccccc2)NC(=O)CSC[C@@H](C(=O)N[C@@H](C)C(N)=O)NC(=O)[C@H](CO)NC(=O)[C@H](C(C)C)NC(=O)[C@H](CC(C)C)NC(=O)[C@H](CCC(=O)O)NC(=O)[C@H]2CCCN2C(=O)[C@H](C)N(C)C(=O)[C@H](CCC(=O)O)NC(=O)[C@H](Cc2ccc(-c3ccccc3)cc2)NC1=O [Example 1177] ({CH2CO}-FYDWL[Bip]E[NMeA][dP]ELVSCA-NH2; thioether N-14)

# Continued, molecule first:
row,SMILES,IC50 [µM]
1,CC(C)C[C@@H]1NC(=O)[C@H](Cc2c[nH]c3ccccc23)NC(=O)[C@H](CC(=O)O)NC(=O)[C@H](Cc2ccc(O)cc2)NC(=O)C(Cc2ccccc2)NC(=O)CSC[C@@H](C(=O)NCC(N)=O)NC(=O)[C@@H](CO)NC(=O)[C@H](C(C)C)NC(=O)[C@H](CC(C)C)NC(=O)[C@H](CC(N)=O)NC(=O)CN(C)C(=O)[C@H](C)N(C)C(=O)[C@H](C(C)C)NC(=O)[C@H](Cc2ccc(-c3ccccc3)cc2)NC1=O (stereo partly shown) [Example 1043] ({CH2CO}-[ξF]YDWL[Bip]V[NMeA][Sar]NLV[dS]CG-NH2; thioether N-14),0.08
2,CC(C)C[C@@H]1NC(=O)[C@H](CCCNC(=N)N)NC(=O)[C@H](Cc2ccccc2)N(C)C(=O)[C@H](CCCCN)NC(=O)[C@H](CCCNC(=N)N)NC(=O)[C@H](Cc2ccc(-c3ccccc3)cc2)NC(=O)[C@H](C(C)C)NC(=O)[C@H](Cc2c[nH]c3ccccc23)NC(=O)[C@H](CC(=O)O)NC(=O)[C@H](Cc2ccc(O)cc2)NC(=O)[C@H](CC(N)=O)NC(=O)CSC[C@@H](C(=O)N[C@@H](C)C(N)=O)NC(=O)[C@H]([C@@H](C)O)NC(=O)[C@H](C(C)C)NC1=O [Example 1365] ({CH2CO}-NYDWV[Bip]RK[NMeF]RLVTCA-NH2; thioether N-14),0.76
3,CC(C)C[C@@H]1NC(=O)[C@H](CCCNC(=N)N)NC(=O)[C@H](Cc2ccccc2)N(C)C(=O)[C@H](C)N(C)C(=O)[C@H](CCCNC(=N)N)NC(=O)[C@H](Cc2ccc(-c3ccccc3)cc2)NC(=O)[C@H](C(C)C)NC(=O)[C@H](Cc2c[nH]c3ccccc23)NC(=O)[C@H](CC(=O)O)NC(=O)[C@H](Cc2ccc(O)cc2)NC(=O)CNC(=O)CSC[C@@H](C(=O)NCC(N)=O)NC(=O)[C@H](CO)NC(=O)[C@H](C(C)C)NC1=O [Example 1258] ({CH2CO}-GYDWV[Bip]R[NMeA][NMeF]RLVSCG-NH2; thioether N-14),0.24
4,CC(C)C[C@@H]1NC(=O)[C@H](CCCNC(=N)N)NC(=O)[C@H](Cc2ccccc2)N(C)C(=O)[C@H](C)N(C)C(=O)[C@H](CCCNC(=N)N)NC(=O)[C@H](Cc2ccc(-c3ccccc3)cc2)NC(=O)[C@H](C(C)C)NC(=O)[C@H](Cc2c[nH]c3ccccc23)NC(=O)[C@H](CC(=O)O)NC(=O)[C@H](Cc2ccc(O)cc2)NC(=O)[C@H](Cc2ccccc2)NC(=O)CSC[C@@H](C(=O)NCC(N)=O)NC(=O)[C@H](CCN)NC(=O)[C@H](C(C)C)NC1=O [Example 1332] ({CH2CO}-FYDWV[Bip]R[NMeA][NMeF]RLV[Dab]CG-NH2; thioether N-14),0.79
5,CC(C)C[C@@H]1NC(=O)[C@H](CCCNC(=N)N)NC(=O)[C@H](Cc2ccccc2)N(C)C(=O)[C@H](C)N(C)C(=O)[C@H](CCCNC(N)=O)NC(=O)[C@H](Cc2ccc(-c3ccccc3)cc2)NC(=O)[C@H](C(C)C)NC(=O)[C@H](Cc2c[nH]c3ccccc23)NC(=O)[C@H](CC(=O)O)NC(=O)[C@H](Cc2ccc(O)cc2)NC(=O)[C@H](CC(N)=O)NC(=O)CSC[C@@H](C(=O)N[C@@H](C)C(N)=O)NC(=O)[C@H](CCCN)NC(=O)[C@H](C(C)C)NC1=O [Example 1371] ({CH2CO}-NYDWV[Bip][Cit][NMeA][NMeF]RLV[Orn]CA-NH2; thioether N-14),0.23
6,CC(C)C[C@@H]1NC(=O)[C@H](Cc2c[nH]c3ccccc23)NC(=O)[C@H](CC(=O)O)NC(=O)[C@H](Cc2ccc(O)cc2)NC(=O)[C@H](Cc2ccncc2)NC(=O)CSC[C@@H](C(=O)N[C@@H](C)C(N)=O)NC(=O)[C@H](CO)NC(=O)[C@H](C(C)C)NC(=O)[C@H](CC(C)C)NC(=O)[C@H](CC(N)=O)NC(=O)[C@H]2CCCN2C(=O)[C@H](C)N(C)C(=O)[C@H](C(C)C)NC(=O)[C@H](Cc2ccc(-c3ccccc3)cc2)NC1=O [Example 1023] ({CH2CO}-[4Pal]YDWL[Bip]V[NMeA][dP]NLVSCA-NH2; thioether N-14),0.04
7,CC(C)C[C@@H]1NC(=O)[C@H](Cc2c[nH]c3ccccc23)NC(=O)[C@H](CC(=O)O)NC(=O)[C@H](Cc2ccc(O)cc2)NC(=O)[C@H](Cc2ccccc2)NC(=O)CSC[C@@H](C(=O)N[C@@H](C)C(N)=O)NC(=O)[C@H](CO)NC(=O)[C@H](C(C)C)NC(=O)[C@H](CC(C)C)NC(=O)[C@H](CC(N)=O)NC(=O)[C@H]2CCCN2C(=O)[C@H](C)N(C)C(=O)[C@H](CCCNC(=N)N)NC(=O)[C@H](Cc2ccc(-c3ccccc3)cc2)NC1=O [Example 1027] ({CH2CO}-FYDWL[Bip]R[NMeA][dP]NLVSCA-NH2; thioether N-14),0.05
